The text below walks through data of patent US4291042A, “Antidepressant piperidine derivatives” (John Wyeth & Brother Limited, priority 1979, dated 1981).

SMILES strings stand for the structures.

For the first test, the system named is neuronal uptake of noradrenaline into slices of cerebral cortex. Kind of test: inhibition of noradrenaline uptake in brain slices. It counts as biochemical, rat. As to conditions: rat brain slices. The method, then:
(§1) The compounds of formula I were tested for the ability to inhibit noradrenaline and 5-hydroxytryptamine uptake in brain slices in the following standard test:
Concentration-response curves are obtained both for the test compound and for the standard agent, imipramine. The potency of each test compound is expressed in proportion to that of imipramine. Thus, [formula]
In the case of `O=C1c2ccccc2C(=O)N1C1CCN(Cc2ccccc2)CC1` [B, 2-(1-benzylpiperid-4-yl)-1H-isoindol-1,3-(2H)-dione, reference compound], the “inhibition of noradrenaline uptake (in words)” value is “inactive”.

Take `O=C1c2ccccc2C(=O)N1C1CCN(Cc2c[nH]c3ccccc23)CC1` [I, 2-(1-[Indol-3-ylmethyl]piperid-4-yl)-1H-isoindole-1,3-(2H)-dione]: the “inhibition of noradrenaline uptake (in words)” value is given as “very weak inhibitors”.

For `O=C1c2ccccc2C(=O)N1C1CCN(CCc2c[nH]c3ccccc23)CC1` [II, 2-(1-[2-(Indol-3-yl)ethyl]piperid-4-yl)-1H-isoindol-1,3-(2H)-dione], the “inhibition of noradrenaline uptake (in words)” value is listed as “very weak inhibitors”.

As for `Nc1ccc2c(c1)C(=O)N(C1CCN(CCc3c[nH]c4ccccc34)CC1)C2=O` [III, 5-amino-2-(1-[2-(indol-3-yl)ethyl]piperid-4-yl)-1H-isoindole-1,3-(2H)-dione], the “inhibition of noradrenaline uptake (in words)” value is listed as “very weak inhibitors”.

The same test, now with this note: rat cerebral cortex slices; H^3 noradrenaline; imipramine = 1.0.
In the case of `O=C1c2ccccc2C(=O)N1C1CCN(Cc2ccccc2)CC1` [B, 2-(1-benzylpiperid-4-yl)-1H-isoindol-1,3-(2H)-dione, reference compound], the “Potency Ratio (imipramine = 1.0) Noradrenaline” value was “inactive”.

Consider `O=C1c2ccccc2C(=O)N1C1CCN(Cc2c[nH]c3ccccc23)CC1` [I, 2-(1-[Indol-3-ylmethyl]piperid-4-yl)-1H-isoindole-1,3-(2H)-dione], for which the “Potency Ratio (imipramine = 1.0) Noradrenaline” value stood at 0.01.

Consider `O=C1c2ccccc2C(=O)N1C1CCN(CCc2c[nH]c3ccccc23)CC1` [II, 2-(1-[2-(Indol-3-yl)ethyl]piperid-4-yl)-1H-isoindol-1,3-(2H)-dione], for which the “Potency Ratio (imipramine = 1.0) Noradrenaline” value was 0.06.

For `Nc1ccc2c(c1)C(=O)N(C1CCN(CCc3c[nH]c4ccccc34)CC1)C2=O` [III, 5-amino-2-(1-[2-(indol-3-yl)ethyl]piperid-4-yl)-1H-isoindole-1,3-(2H)-dione], the “Potency Ratio (imipramine = 1.0) Noradrenaline” value was “inactive”.

The test system of the next test is uptake of 5-hydroxytryptamine. Kind of test: inhibition of 5-hydroxytryptamine uptake in brain slices. It counts as biochemical, rat. The arrangement: key: Compounds not achieving 50% inhibition are considered inactive. As to conditions: rat brain slices. The method, then: as §1
The effects of test compounds on the neuronal uptake of noradrenaline into slices of cerebral cortex prepared from rat brain is determined according to the method described by Snyder, Green and Hendley, Kinetics of H^3 --norepinephrine accumulation into slices from different regions of the rat brain (J.Pharm. exp. Therap. 164: 90-102) (1968). The effects of test compounds on the uptake of 5-hydroxytryptamine is obtained in a similar manner except that H^3 5-hydroxytryptamine is used in place of H^3 noradrenaline. Concentration-response curves are obtained both for the test compound and for the standard agent, imipramine. The potency of each test compound is expressed in proportion to that of imipramine. Thus, [formula]
In the case of `O=C1c2ccccc2C(=O)N1C1CCN(Cc2ccccc2)CC1` [B, 2-(1-benzylpiperid-4-yl)-1H-isoindol-1,3-(2H)-dione, reference compound], the “inhibition of 5-HT (hydroxytryptamine) uptake (in words)” value (shortened to “inhibition of 5-HT”) was “inactive”.

Consider `O=C1c2ccccc2C(=O)N1C1CCN(Cc2c[nH]c3ccccc23)CC1` [I, 2-(1-[Indol-3-ylmethyl]piperid-4-yl)-1H-isoindole-1,3-(2H)-dione], for which the “inhibition of 5-HT” value is “potent inhibitors”.

Regarding `O=C1c2ccccc2C(=O)N1C1CCN(CCc2c[nH]c3ccccc23)CC1` [II, 2-(1-[2-(Indol-3-yl)ethyl]piperid-4-yl)-1H-isoindol-1,3-(2H)-dione], the “inhibition of 5-HT” value is reported as “potent inhibitors”.

Turning to `Nc1ccc2c(c1)C(=O)N(C1CCN(CCc3c[nH]c4ccccc34)CC1)C2=O` [III, 5-amino-2-(1-[2-(indol-3-yl)ethyl]piperid-4-yl)-1H-isoindole-1,3-(2H)-dione], the “inhibition of 5-HT” value is recorded as “potent inhibitors”.

The same test, now with this note: rat cerebral cortex slices; H^3 5-hydroxytryptamine; imipramine = 1.0.
`O=C1c2ccccc2C(=O)N1C1CCN(Cc2ccccc2)CC1` [B, 2-(1-benzylpiperid-4-yl)-1H-isoindol-1,3-(2H)-dione, reference compound]: the “Potency Ratio (imipramine = 1.0) 5-hydroxytryptamine” value was “inactive”.

On to `O=C1c2ccccc2C(=O)N1C1CCN(Cc2c[nH]c3ccccc23)CC1` [I, 2-(1-[Indol-3-ylmethyl]piperid-4-yl)-1H-isoindole-1,3-(2H)-dione], for which the “Potency Ratio (imipramine = 1.0) 5-hydroxytryptamine” value is listed as 9.5.

As to `O=C1c2ccccc2C(=O)N1C1CCN(CCc2c[nH]c3ccccc23)CC1` [II, 2-(1-[2-(Indol-3-yl)ethyl]piperid-4-yl)-1H-isoindol-1,3-(2H)-dione], the “Potency Ratio (imipramine = 1.0) 5-hydroxytryptamine” value stood at 8.3.

For the compound `Nc1ccc2c(c1)C(=O)N(C1CCN(CCc3c[nH]c4ccccc34)CC1)C2=O` [III, 5-amino-2-(1-[2-(indol-3-yl)ethyl]piperid-4-yl)-1H-isoindole-1,3-(2H)-dione], the “Potency Ratio (imipramine = 1.0) 5-hydroxytryptamine” value is recorded as 11.0.

Another test relates to p-chloroamphetamine induced hyperactivity. Nature of the test: inhibition of p-chloroamphetamine (pCA) induced hyperactivity. It counts as in vivo. As to conditions: female mice; 50 mg/kg po; 20 mg/kg pCA ip 30 min later; activity 10-30 min post pCA. As to the method:
Compounds of formula I were also tested for their ability to inhibit p-chloroamphetamine induced hyperactivity. The following procedure was used:
Three groups of 4 female mice (20-24 g) received the test compounds (50 mg/kg po) and a fourth group the requisite volume of vehicle. Thirty minutes later all the animals are given 20 mg/kg p-chloroamphetamine (pCA) ip. The grouped mice are placed immediately in square plastic cages in activity monitors and their motor activity recorded over the period 10-30 minutes post pCA. This procedure is repeated three more times so that four groups of mice are used per treatment and each activity monitor is used with all treatments in turn. The inhibition of pCA induced hyperactivity is calculated thus: [formula] where C=mean activity of control groups 10-30 minutes post pCA.
T=mean activity of treated groups 10-30 minutes post pCA.
This test is used as an in vivo screen for detection of 5-hydroxytryptamineuptake inhibitors.
Compounds giving >50% inhibition are considered of special interest. In such a test the following compounds were particularly active: […]
For `O=C1c2ccccc2S(=O)(=O)N1C1CCN(Cc2c[nH]c3ccccc23)CC1` [Example 3, 2-(1-[Indol-3-ylmethyl]piperid-4-yl)-1,2-benzisothiazolin-3-one-1,1-dioxide], the “% Inhibition of pCA induced hyperactivity” value (“% Inhibition” for short) is 56%.

Turning to `O=C1c2ccc(Cl)cc2C(=O)N1C1CCN(CCc2c[nH]c3ccccc23)CC1` [Example 8, 5-Chloro-2-(1-[2-(indol-3-yl)ethyl]piperid-4-yl)-1H-isoindole-1,3-(2H)-dione], the “% Inhibition” value is given as 94%.

On to `O=C1c2ccc(Cl)cc2C(=O)N1C1CCN(Cc2c[nH]c3ccccc23)CC1` [Example 16, 5-Chloro-2-[1-(indol-3-ylmethyl)piperid-4-yl]-1H-isoindole-1,3-(2H)-dione], for which the “% Inhibition” value stood at 63%.

On to `O=C1c2ccccc2C(=O)N1C1CCN(Cc2c[nH]c3ccccc23)CC1` [I, 2-(1-[Indol-3-ylmethyl]piperid-4-yl)-1H-isoindole-1,3-(2H)-dione], for which the “% Inhibition” value is recorded as 53%.
